Residues, ends and D or L forms follow the SMILES beside them.

This is an account of results in US20260365696A1, “INHIBITORS OF PTP1B / NCK1 INTERACTION AND METHODS OF MAKING AND USING SAME” (Radella Pharmaceuticals LLC, priority 2023, published 2026).

The target of the first assay is T1, SH3-2 domain of NCK1 (Homo sapiens, UniProt P16333).
T1 construct: To amplify the NCK1 SH3-2 domain, the primers; 10xHis tag with TEV site (vector pSF-OXB20-NH2-10HIS) (N, cleaved yes); made in house; host or cells: E. coli C43(DE3)
Description: Isothermal titration calorimetry (ITC) binding to NCK1 SH3-2 domain. The following applies: Modified MD18/MD20 peptides; ITC, 25 °C, pH 8.0. From the text:
Human PTP1B cDNA (NM_002827) and human NCK1 cDNA (NM 006153) were obtained (Origene, MD, USA). PTP1B Primers were designed to amplify the ORFs with added homology to the cut vector (EcoRI-digested pSF-OXB20-NH2-10HIS) in the forward primer sequence. To amplify full-length PTP1B, the primers ptp1b_FL_fwd ([…]) (SEQ ID NO: 159) and ptp1b_FL_rev ([…]) (SEQ ID NO: 160) were used. To amplify truncations of PTP1B, the following primer pairs were used: ptp1b_FL-Fwd and one of Ptplb_323stop_rev (gtgcaggaggagttcgaatt[…]) (SEQ ID NO: 161), ptp1b_344stop_rev ([…]) (SEQ ID NO: 162) or ptp1b_278stop_rev([…]) (SEQ ID NO: 163). To amplify the NCK1 SH3-2 domain, the primers ncklsh32_fwd ([…]) (SEQ ID NO: 164) and ncklsh32_rev ([…]) (SEQ ID NO: 165) were used. The amplified fragments were purified using a DNA clean-up kit according to manufacturer's instructions (QIAquick PCR purification kit, Qiagen).
To produce and purify fusion proteins, a culture was inoculated with 1% of overnight-cultured inoculum. Protein expression was carried out under the conditions described above, scaled up as necessary. Cells expressing the recombinant proteins were harvested in 50 mL tubes by centrifugation and stored at −80 °C. Cells containing the expressed gene product were thawed over ice and resuspended in Extraction buffer (10 mM Tris, pH 7.4 or 10 mM Sodium Phosphate, pH 8.0; 300 mM NaCl, 1 mM DTT or TCEP; 0-10% glycerol and 1 μg lysozyme) and sonicated over ice (4 °C) for 3 min total using pulses of 5 s with 15 s intervals, using a wide probe at 15 amplitude microns (Soniprep 150, MSE). Insoluble material was removed from the lysate by centrifugation at 20K rpm for 20-60 min at 4 °C. Supernatant was filtered through a 0.22 μm PVDF filter membrane and applied to 1-2 5 mL HisTrap FF Crude (Cytiva) prepacked Ni columns and connected to an AKTA explorer. After thorough washing with binding buffer (10 mM Tris, pH 7.4 or 10 mM Sodium Phosphate, pH 8.0; 300 mM NaCl; 1 mM DTT or TCEP and 25 mM Imidazole), protein was eluted using elution buffer (10 mM Tris, pH 7.4 or 10 mM Sodium Phosphate, pH 8.0; 150-300 mM NaCl; 1 mM DTT or TCEP and 250 mM Imidazole). Fractions containing protein of interest were confirmed by SDS PAGE. Protein was diluted with GF buffer (10 mM Tris, pH 7.4 or 10 mM Sodium Phosphate, pH 8.0; 150-300 mM NaCl) and subjected to TEV protease treatment overnight at 4-10 °C. Following proteolytic digestion, HIS-tag and TEV protease were removed by filtration through a clean 5 mL HisTrap FF Crude (Cytiva) prepacked Ni column. Protein was concentrated on a PES ultrafiltration device by centrifugation at 4000 rpm at 4 °C, and protein was polished via a HiPrep S-100 26/60 (Cytiva) using GF buffer (as described above). Purified proteins were concentrated using ultrafiltration, and protein concentration was determined using ultraviolet-visible spectroscopy. The integrity and identity of all proteins were verified by mass spectrographic analysis.
Isothermal titration calorimetry (ITC) was used to determine binding affinities for peptides against the SH3-2 domain of NCK1. Experiments were conducted at 25 °C using either a MicroCal iTC200 or MicroCal PEAQ-ITC calorimeter. The buffer used for all ITC experiments was 10 mM sodium [COMPOUND LEFT OUT] mM sodium chloride (pH=8.0). A series of peptides (concentration 3-7.5 mM) were titrated in to NCK1 SH3-2 domain (concentration 0.125-0.3 mM) using the following conditions: one injection of 0.2 μL followed by 19 injections of 2 μL, 120-150 seconds spacing between injections, at 25 °C. The data were fit using analysis software provided by the manufacturer and affinity values were calculated. The best fitting occurred when the number of sites was between 0.8 and 1.2. The experiments were repeated twice for a total of three times, and the average binding affinity for each peptide was generated. […]
The term Kd denotes the free concentration of one partner at which half of the binding sites on the other are occupied at equilibrium, for simple one-to-one binding. A high value points to lower affinity. As for `CCNC(=O)[C@H](CCCNC(=N)N)NC(=O)[C@H](CCCCN)NC(=O)[C@@H]1CCCN1C(=O)[C@@H]1CCCN1C(=O)[C@H](CCCNC(=N)N)NC(=O)[C@@H]1CCCN1C(C)=O` [MH045, Ac-PRPPKR-NHEt] (Ac-PRPPKR-NHEt), the Kd is no more than 300 µM.
The same measure, in the same setting: under Ac-APRPPKR-NH2 [MH047, Ac-APRPPKR-NH2] stands no more than 300 µM.

Still in this assay, the particulars now being: N- or C-terminal extensions; ITC, 25 °C, pH 8.0; 30-mers tested one to three times.
For Ac-PPRPPKRI-NH2 [MH063], the Kd is no more than 300 µM.
Ac-PPRPPKRIL-NH2 [MH064]: the Kd is no more than 300 µM.
On the same count and under the same terms, under Ac-PPPEHIPPPPRPPKRILE-NH2 [MH077] stands no more than 300 µM; under “Ac-WKELSHEDLEPPPEHIPPPPRPPKR-NH2 [MH135]”, no more than 300 µM.

Still in this assay, the particulars now being: Peptide truncation analysis; ITC, 25 °C, pH 8.0.
`CC(=O)N1CCC[C@H]1C(=O)N[C@@H](CCCCN)C(=O)N[C@@H](CCCNC(=N)N)C(N)=O` [MH014, Ac-PKR-NH2] (Ac-Pro-Lys-Arg-NH2): the Kd is greater than 1000 µM.
In turn, Ac-PPEHIPPPPRPPKR-NH2 [MH030] came in with a Kd of no more than 300 µM.
The same measure, in the same setting: under `CC(=O)N1CCC[C@H]1C(=O)N[C@@H](CCCNC(=N)N)C(=O)N1CCC[C@H]1C(=O)N1CCC[C@H]1C(N)=O` [MH021, Ac-PRPP-NH2] (Ac-PRPP-NH2) stands greater than 1000 µM.
Ac-HIPPPPRPPKR-NH2 [MH027]: the Kd was no more than 300 µM.
The same measure, in the same setting: under Ac-APRPPKR-NH2 [MH047, Ac-APRPPKR-NH2] stands no more than 300 µM.

The assay is the same for the next values; noted with them: Sliding window peptide analysis; ITC, 25 °C, pH 8.0.
For the molecule Ac-IPPPPR-NH2 [MH038, Ac-IPPPPR-NH2], the Kd is greater than 1000 µM.

Still in this assay, the particulars now being: exemplary control peptides; ITC, 25 °C, pH 8.0.
As for “Ac-SPAKGEPSLPEK-NH2 [MH133, reference compound]”, the Kd was greater than 1000 µM.

Still in this assay, the particulars now being: substitutions at position 1 of MD18; ITC, 25 °C, pH 8.0.
As for Ac-VPRPPKR-NH2 [MH123, Ac-VPRPPKR-NH2], the Kd was no more than 300 µM.
Molecule Ac-FPRPPKR-NH2 [MH073, Ac-FPRPPKR-NH2] returned a dissociation constant Kd of no more than 300 µM.
The molecule Ac-DPRPPKR-NH2 [MH083, Ac-DPRPPKR-NH2] had a Kd of no more than 300 µM.
Same read-out and setting: under Ac-APRPPKR-NH2 [MH047, Ac-APRPPKR-NH2] stands no more than 300 µM.

The assay is the same for the next values; noted with them: substitutions at position 3 of MD18; ITC, 25 °C, pH 8.0.
On to Ac-PPWPPKR-NH2 [MH056, Ac-PPWPPKR-NH2], for which the Kd lay within 300 to 600 µM.
Ac-PPPPPKR-NH2 [MH106, Ac-PPPPPKR-NH2]: the Kd is no more than 300 µM.

The assay is the same for the next values; noted with them: substitutions at position 4 of MD18 in a 7-mer; ITC, 25 °C, pH 8.0.
For the molecule Ac-PPRDPKR-NH2 [MH128, Ac-PPRDPKR-NH2], the Kd was greater than 1000 µM.

The same assay, now with this note: substitutions at position 6 of MD18; ITC, 25 °C, pH 8.0.
In turn, Ac-PPRPPNR-NH2 [MH053, Ac-PPRPPNR-NH2] returned a Kd of no more than 300 µM.
The molecule Ac-PPRPPDR-NH2 [MH085, Ac-PPRPPDR-NH2] had a Kd of 300 to 600 µM.
Still for that read-out and setting: under Ac-PPRPPRR-NH2 [MH048, Ac-PPRPPRR-NH2] stands no more than 300 µM.

The same assay, now with this note: substitutions at position 8 of the 8-mer MH063; ITC, 25 °C, pH 8.0; certain peptides tested one to three times.
Ac-PPRPPKRR-NH2 [MH139] returned a Kd of no more than 300 µM.
On the same count and under the same terms, under Ac-PPRPPKRI-NH2 [MH063] stands no more than 300 µM; under Ac-PPRPPKRF-NH2 [MH150], no more than 300 µM.

A further assay has as its target T2, NCK1 SH3-2 domain (human).
T2 chain: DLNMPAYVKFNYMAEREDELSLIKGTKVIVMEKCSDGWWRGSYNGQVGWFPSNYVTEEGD
Description: ITC.
Settings: not given
Molecule Ac-PRPPK-NH2 [MH022] displayed a Kd greater than 1000 µM.
As to Ac-PPKR-NH2 [MH017], the Kd was greater than 1000 µM.
Still for that read-out and setting: under Ac-IPPPPRPPKR-NH2 [MH026] stands less than 300 µM.
The molecule RPP [MH020] yielded a Kd greater than 1000 µM.
In turn, PKR [MH014] displayed a Kd greater than 1000 µM.
The molecule Ac-HIPPPPRPPKR-NH2 [MH027] yielded a Kd of less than 300 µM.
On the same count and under the same terms, under Ac-RPPK-NH2 [MH016] stands greater than 1000 µM.
Ac-PPPPRPPKR-NH2 [MH025] returned a Kd of less than 300 µM.
On to Ac-PEHIPPPPRPPKR-NH2 [MH029], for which the Kd was less than 300 µM.
Ac-PPPRPPKR-NH2 [MH024] yielded a Kd of less than 300 µM.
